Measurements from ChEMBL document CHEMBL5042484, “Design of SARS-CoV-2 PLpro Inhibitors for COVID-19 Antiviral Therapy Leveraging Binding Cooperativity” (J Med Chem, 2022).

Each molecule was assayed on SARS-CoV-2 (assay: Antiviral activity against SARS-COV-2 USA/WA1/2020 in human A549 cells overexpressing ACE2 receptor assessed as reduction in viral replication at MOI of 0.01 pretreated for 1 hr followed by viral infection and further incubated for 1 hr measured after 48 hrs by RT-qPCR analysis). Conditions: Severe acute respiratory syndrome coronavirus 2, USA/WA1/2020, A549.
Assay type: functional, organism-based
In the case of Cc1ccc(NC2CNC2)cc1C(=O)N[C@H](C)c1cccc(-c2ccc(CNC3CCCC3)s2)c1, the EC50 is reported as 1400 nM. Cc1ccc(NC2CNC2)cc1C(=O)N[C@H](C)c1cccc(-c2ccc(CN3CCCC3)s2)c1 was tested, and the EC50 was 1200 nM. Molecule Cc1ccc(N)cc1C(=O)N[C@H](C)c1cccc2ccccc12 has an EC50 of over 20000 nM.
